Laboratory results from the NIST ThermoML archive (doi:10.1021/je800653d).
Numbers after ± are expanded uncertainties.

Columns and labels:
[1] = 101 kPa, Liquid; for speed of sound: Linear variable-path acoustic interferometer; for viscosity: Capillary tube (Ostwald / Ubbelohde) method
[2] = xn = mol fraction of the nth substance listed; conditions: 101 kPa, Liquid, x2 = 0; for speed of sound: Linear variable-path acoustic interferometer; for viscosity: Capillary tube (Ostwald / Ubbelohde) method

For `CCCCOC(C)=O` [butyl ethanoate], the mass density ([1]; 298.15 K) was 875.6 ± 0.7 kg/m3, the speed of sound ([1]; 298.15 K) was 1203 ± 5 m/s and the mass density ([1]; 303.15 K) was 871.6 ± 0.8 kg/m3. It also gave a viscosity ([1]; 303.15 K) of 0.6072 ± 0.0061 mPa·s, a speed of sound ([1]; 303.15 K) of 1176 ± 5 m/s and a mass density ([1]; 308.15 K) of 867.1 ± 0.8 kg/m3. It also gave a viscosity ([1]; 308.15 K) of 0.5687 ± 0.0057 mPa·s, a speed of sound ([1]; 308.15 K) of 1155 ± 5 m/s and a mass density ([1]; 313.15 K) of 862 ± 0.8 kg/m3. It also gave a viscosity ([1]; 313.15 K) of 0.534 ± 0.0054 mPa·s and a speed of sound ([1]; 313.15 K) of 1135 ± 5 m/s.
Work on `O=S1(=O)CCCC1` [sulfolane] yielded a mass density ([1]; 298.15 K) of 1263.9 ± 1.3 kg/m3, a speed of sound ([1]; 298.15 K) of 1601 ± 7 m/s and a mass density ([1]; 303.15 K) of 1261.8 ± 1.3 kg/m3. It also gave a viscosity ([1]; 303.15 K) of 10.03 ± 0.079 mPa·s, a speed of sound ([1]; 303.15 K) of 1588 ± 7 m/s and a mass density ([1]; 308.15 K) of 1257 ± 1.3 kg/m3. It also gave a viscosity ([1]; 308.15 K) of 8.795 ± 0.07 mPa·s, a speed of sound ([1]; 308.15 K) of 1576 ± 7 m/s and a mass density ([1]; 313.15 K) of 1251.6 ± 1.3 kg/m3. It also gave a viscosity ([1]; 313.15 K) of 7.837 ± 0.063 mPa·s and a speed of sound ([1]; 313.15 K) of 1558 ± 7 m/s.
In the case of `CCOC(C)=O` [ethyl acetate] + O=S1(=O)CCCC1, the speed of sound ([2]; 298.15 K) is reported as 1142 ± 5 m/s, the mass density ([2]; 298.15 K) is reported as 895.1 ± 0.8 kg/m3 and the viscosity ([2]; 303.15 K) is reported as 0.3806 ± 0.0041 mPa·s. It also gave a speed of sound ([2]; 303.15 K) of 1122 ± 5 m/s, a mass density ([2]; 303.15 K) of 889.4 ± 0.8 kg/m3 and a viscosity ([2]; 308.15 K) of 0.3622 ± 0.004 mPa·s. It also gave a speed of sound ([2]; 308.15 K) of 1101 ± 5 m/s, a mass density ([2]; 308.15 K) of 883.9 ± 0.8 kg/m3 and a viscosity ([2]; 313.15 K) of 0.3426 ± 0.0038 mPa·s. It also gave a speed of sound ([2]; 313.15 K) of 1082 ± 5 m/s and a mass density ([2]; 313.15 K) of 875.8 ± 0.8 kg/m3.
Molecule `CCCOC(C)=O` [propyl ethanoate] has a mass density ([1]; 298.15 K) of 883.7 ± 0.7 kg/m3, a speed of sound ([1]; 298.15 K) of 1156 ± 5 m/s and a mass density ([1]; 303.15 K) of 877.7 ± 0.8 kg/m3. It also gave a viscosity ([1]; 303.15 K) of 0.4878 ± 0.0054 mPa·s, a speed of sound ([1]; 303.15 K) of 1149 ± 5 m/s and a mass density ([1]; 308.15 K) of 873.1 ± 0.8 kg/m3. It also gave a viscosity ([1]; 308.15 K) of 0.4595 ± 0.0048 mPa·s, a speed of sound ([1]; 308.15 K) of 1139 ± 5 m/s and a mass density ([1]; 313.15 K) of 866.7 ± 0.8 kg/m3. It also gave a viscosity ([1]; 313.15 K) of 0.4329 ± 0.0046 mPa·s and a speed of sound ([1]; 313.15 K) of 1126 ± 5 m/s.
Work on `CCCOC(C)=O` [propyl ethanoate] + O=S1(=O)CCCC1 yielded a speed of sound ([2]; 298.15 K) of 1156 ± 5 m/s, a mass density ([2]; 298.15 K) of 883.7 ± 0.7 kg/m3 and a viscosity ([2]; 303.15 K) of 0.4878 ± 0.0054 mPa·s. The speed of sound ([2]; 303.15 K) was 1149 ± 5 m/s, the mass density ([2]; 303.15 K) was 877.7 ± 0.8 kg/m3 and the viscosity ([2]; 308.15 K) was 0.4595 ± 0.0048 mPa·s. The speed of sound ([2]; 308.15 K) was 1139 ± 5 m/s, the mass density ([2]; 308.15 K) was 873.1 ± 0.8 kg/m3 and the viscosity ([2]; 313.15 K) was 0.4329 ± 0.0046 mPa·s. The speed of sound ([2]; 313.15 K) was 1126 ± 5 m/s and the mass density ([2]; 313.15 K) was 866.7 ± 0.8 kg/m3.
For `CCOC(C)=O` [ethyl acetate], the mass density ([1]; 298.15 K) was 895.1 ± 0.8 kg/m3, the speed of sound ([1]; 298.15 K) was 1142 ± 5 m/s and the mass density ([1]; 303.15 K) was 889.4 ± 0.8 kg/m3. The viscosity ([1]; 303.15 K) was 0.3806 ± 0.0041 mPa·s, the speed of sound ([1]; 303.15 K) was 1122 ± 5 m/s and the mass density ([1]; 308.15 K) was 883.9 ± 0.8 kg/m3. For the same molecule, the viscosity ([1]; 308.15 K) was 0.3622 ± 0.004 mPa·s, the speed of sound ([1]; 308.15 K) was 1101 ± 5 m/s and the mass density ([1]; 313.15 K) was 875.8 ± 0.8 kg/m3. It also gave a viscosity ([1]; 313.15 K) of 0.3426 ± 0.0038 mPa·s and a speed of sound ([1]; 313.15 K) of 1082 ± 5 m/s.
`CCCCOC(C)=O` [butyl ethanoate] + O=S1(=O)CCCC1 gave a speed of sound ([2]; 298.15 K) of 1203 ± 5 m/s, a mass density ([2]; 298.15 K) of 875.6 ± 0.7 kg/m3 and a viscosity ([2]; 303.15 K) of 0.6072 ± 0.0061 mPa·s. For the same molecule, the speed of sound ([2]; 303.15 K) was 1176 ± 5 m/s, the mass density ([2]; 303.15 K) was 871.6 ± 0.8 kg/m3 and the viscosity ([2]; 308.15 K) was 0.5687 ± 0.0057 mPa·s. For the same molecule, the speed of sound ([2]; 308.15 K) was 1155 ± 5 m/s, the mass density ([2]; 308.15 K) was 867.1 ± 0.8 kg/m3 and the viscosity ([2]; 313.15 K) was 0.534 ± 0.0054 mPa·s. It also gave a speed of sound ([2]; 313.15 K) of 1135 ± 5 m/s and a mass density ([2]; 313.15 K) of 862 ± 0.8 kg/m3.
